Measurements published in PubChem BioAssay (NCI).
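96-well plates; 48 h exposure; 5 concentrations. Endpoints by linear interpolation between flanking doses. Not reached: highest tested concentration assigned. The concentration for 50% growth inhibition is given as GI50. Definition used: TGI = concentration required for complete inhibition of growth.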

Key:
Assay in all cases: NCI anticancer screen, dose series, 48 h
COLO 205 colon = tested on: COLO 205 colon
SF-295 CNS = tested on: SF-295 CNS
HOP-92 NSCLC = tested on: HOP-92 NSCLC
MDA-MB-231 breast = tested on: MDA-MB-231 breast
MCF7 breast = tested on: MCF7 breast
OVCAR-8 ovarian = tested on: OVCAR-8 ovarian
SNB-75 CNS = tested on: SNB-75 CNS
HCT-15 colon = tested on: HCT-15 colon
SN12C renal = tested on: SN12C renal
UACC-257 melanoma = tested on: UACC-257 melanoma
SK-MEL-28 melanoma = tested on: SK-MEL-28 melanoma
786-0 renal = tested on: 786-0 renal
SR leukemia = tested on: SR leukemia
DU-145 prostate = tested on: DU-145 prostate
HOP-62 NSCLC = tested on: HOP-62 NSCLC
OVCAR-3 ovarian = tested on: OVCAR-3 ovarian
KM12 colon = tested on: KM12 colon
CCRF-CEM leukemia = tested on: CCRF-CEM leukemia
SK-OV-3 ovarian = tested on: SK-OV-3 ovarian
SK-MEL-5 melanoma = tested on: SK-MEL-5 melanoma
A549 NSCLC = tested on: A549 NSCLC
SW-620 colon = tested on: SW-620 colon
M14 melanoma = tested on: M14 melanoma
UACC-62 melanoma = tested on: UACC-62 melanoma
MDA-MB-435 = tested on: MDA-MB-435
NCI-H522 lung = tested on: NCI-H522 lung
T-47D breast = tested on: T-47D breast
ACHN renal = tested on: ACHN renal
CAKI-1 renal = tested on: CAKI-1 renal
HCC-2998 colon = tested on: HCC-2998 colon
NCI-H23 lung = tested on: NCI-H23 lung
SNB-19 CNS = tested on: SNB-19 CNS
K-562 leukemia = tested on: K-562 leukemia
RPMI-8226 leukemia = tested on: RPMI-8226 leukemia
NCI/ADR-RES ovarian = tested on: NCI/ADR-RES ovarian
IGROV1 ovarian = tested on: IGROV1 ovarian
MALME-3M melanoma = tested on: MALME-3M melanoma
RXF 393 renal = tested on: RXF 393 renal
U251 CNS = tested on: U251 CNS
BT-549 breast = tested on: BT-549 breast
TK-10 renal = tested on: TK-10 renal
SK-MEL-2 melanoma = tested on: SK-MEL-2 melanoma
HT29 colon = tested on: HT29 colon
OVCAR-4 ovarian = tested on: OVCAR-4 ovarian
EKVX NSCLC = tested on: EKVX NSCLC
A498 renal = tested on: A498 renal
NCI-H460 lung = tested on: NCI-H460 lung
SF-268 CNS = tested on: SF-268 CNS
MOLT-4 leukemia = tested on: MOLT-4 leukemia
HCT-116 colon = tested on: HCT-116 colon
HS 578T breast = tested on: HS 578T breast
HL-60(TB) leukemia = tested on: HL-60(TB) leukemia
OVCAR-5 ovarian = tested on: OVCAR-5 ovarian
LOX IMVI melanoma = tested on: LOX IMVI melanoma
UO-31 renal = tested on: UO-31 renal
PC-3 prostate = tested on: PC-3 prostate
NCI-H226 lung = tested on: NCI-H226 lung
SF-539 CNS = tested on: SF-539 CNS

**Q.** Which results are given for COc1ccc(C2C(C#N)=C(N)Oc3c2sc2c(Br)cccc32)cc1 (stereo unspecified)?
**A.** GI50 (COLO 205 colon): 2.23 µM; TGI (COLO 205 colon): 5.39 µM; GI50 (SF-295 CNS): 0.907 µM; TGI (SF-295 CNS): 6.54 µM; GI50 (HOP-92 NSCLC): 8.88 µM; TGI (HOP-92 NSCLC): 26.4 µM; GI50 (MDA-MB-231 breast): 2.78 µM; TGI (MDA-MB-231 breast): 12.7 µM; GI50 (MCF7 breast): 0.467 µM; TGI (MCF7 breast): 12 µM; GI50 (OVCAR-8 ovarian): 4.99 µM; TGI (OVCAR-8 ovarian): 25.3 µM; GI50 (SNB-75 CNS): 1.61 µM; TGI (SNB-75 CNS): 8.06 µM; GI50 (HCT-15 colon): 0.93 µM; TGI (HCT-15 colon): 10.7 µM; GI50 (SN12C renal): 4 µM; TGI (SN12C renal): 17 µM; GI50 (UACC-257 melanoma): 13.6 µM; TGI (UACC-257 melanoma): 32.7 µM; GI50 (SK-MEL-28 melanoma): 8.15 µM; TGI (SK-MEL-28 melanoma): 24.1 µM; GI50 (786-0 renal): 3.25 µM; TGI (786-0 renal): 13 µM; GI50 (SR leukemia): 0.473 µM; TGI (SR leukemia): 3.37 µM; GI50 (DU-145 prostate): 3.27 µM; TGI (DU-145 prostate): 11.2 µM; GI50 (HOP-62 NSCLC): 4.48 µM; TGI (HOP-62 NSCLC): 17.5 µM; GI50 (OVCAR-3 ovarian): 0.979 µM; TGI (OVCAR-3 ovarian): 3.75 µM; GI50 (KM12 colon): 1.92 µM; TGI (KM12 colon): 14 µM; GI50 (CCRF-CEM leukemia): 1.63 µM; TGI (CCRF-CEM leukemia): 7.02 µM; GI50 (SK-OV-3 ovarian): 4.68 µM; TGI (SK-OV-3 ovarian): 19.9 µM; GI50 (SK-MEL-5 melanoma): 2.4 µM; TGI (SK-MEL-5 melanoma): 10.7 µM; GI50 (A549 NSCLC): 4.69 µM; TGI (A549 NSCLC): 21 µM; GI50 (SW-620 colon): 1.87 µM; TGI (SW-620 colon): 86.6 µM; GI50 (M14 melanoma): 1.46 µM; TGI (M14 melanoma): 6.8 µM; GI50 (UACC-62 melanoma): 0.996 µM; TGI (UACC-62 melanoma): 15.4 µM; GI50 (MDA-MB-435): 0.373 µM; TGI (MDA-MB-435): 2.54 µM; GI50 (NCI-H522 lung): 1.75 µM; TGI (NCI-H522 lung): 6.28 µM; GI50 (T-47D breast): 3.13 µM; TGI (T-47D breast): 15 µM; GI50 (ACHN renal): 4.82 µM; TGI (ACHN renal): 19.3 µM; GI50 (CAKI-1 renal): 2.47 µM; TGI (CAKI-1 renal): 18.2 µM; GI50 (HCC-2998 colon): 1.64 µM; TGI (HCC-2998 colon): 6.25 µM; GI50 (NCI-H23 lung): 2.64 µM; TGI (NCI-H23 lung): 14.2 µM; GI50 (SNB-19 CNS): 4.04 µM; TGI (SNB-19 CNS): 21.6 µM; GI50 (K-562 leukemia): 0.404 µM; TGI (K-562 leukemia): 5.79 µM; GI50 (RPMI-8226 leukemia): 2.9 µM; TGI (RPMI-8226 leukemia): 12.5 µM; GI50 (NCI/ADR-RES ovarian): 0.767 µM; TGI (NCI/ADR-RES ovarian): 4.26 µM; GI50 (IGROV1 ovarian): 2.29 µM; TGI (IGROV1 ovarian): 20.9 µM; GI50 (MALME-3M melanoma): 4.75 µM; TGI (MALME-3M melanoma): 25.3 µM; GI50 (RXF 393 renal): 1.94 µM; TGI (RXF 393 renal): 5.96 µM; GI50 (U251 CNS): 3.25 µM; TGI (U251 CNS): 12.4 µM; GI50 (BT-549 breast): 4.76 µM; TGI (BT-549 breast): 25.3 µM; GI50 (TK-10 renal): 8.48 µM; TGI (TK-10 renal): 22.2 µM; GI50 (SK-MEL-2 melanoma): 2.38 µM; TGI (SK-MEL-2 melanoma): 12.7 µM; GI50 (HT29 colon): 3.8 µM; TGI (HT29 colon): 11.2 µM; GI50 (OVCAR-4 ovarian): 3.02 µM; TGI (OVCAR-4 ovarian): 21.9 µM; GI50 (EKVX NSCLC): 4.38 µM; TGI (EKVX NSCLC): 21 µM; GI50 (A498 renal): 1.37 µM; TGI (A498 renal): 13.9 µM; GI50 (NCI-H460 lung): 2.08 µM; TGI (NCI-H460 lung): 21.9 µM; GI50 (SF-268 CNS): 4.62 µM; TGI (SF-268 CNS): 21.5 µM; GI50 (MOLT-4 leukemia): 1.55 µM; TGI (MOLT-4 leukemia): 6.78 µM; GI50 (HCT-116 colon): 1.93 µM; TGI (HCT-116 colon): 12.3 µM; GI50 (HS 578T breast): 3.3 µM; TGI (HS 578T breast): 36.1 µM; GI50 (HL-60(TB) leukemia): 1.12 µM; TGI (HL-60(TB) leukemia): 3.73 µM; GI50 (OVCAR-5 ovarian): 8.95 µM; TGI (OVCAR-5 ovarian): 26.5 µM; GI50 (LOX IMVI melanoma): 2.03 µM; TGI (LOX IMVI melanoma): 12.8 µM; GI50 (UO-31 renal): 3.21 µM; TGI (UO-31 renal): 17.7 µM; GI50 (PC-3 prostate): 2.86 µM; TGI (PC-3 prostate): 17.3 µM; GI50 (NCI-H226 lung): 6.62 µM; TGI (NCI-H226 lung): 24 µM

**Q.** Which results are given for O=C(c1ccc([N+](=O)[O-])cc1)C(Br)C(Br)c1ccnc2ccccc12 (stereo unspecified)?
**A.** TGI (SF-539 CNS): 15.3 µM; TGI (COLO 205 colon): 28.9 µM; TGI (SF-295 CNS): 21.1 µM; TGI (HOP-92 NSCLC): 28.8 µM; TGI (MDA-MB-231 breast): 27.8 µM; TGI (MCF7 breast): 8.86 µM; TGI (OVCAR-8 ovarian): 42.3 µM; TGI (SNB-75 CNS): 13.1 µM; TGI (HCT-15 colon): 27.3 µM; TGI (SN12C renal): 14.4 µM; TGI (UACC-257 melanoma): 14.6 µM; TGI (SK-MEL-28 melanoma): 30.8 µM; TGI (786-0 renal): 7.44 µM; TGI (SR leukemia): 5.69 µM; TGI (DU-145 prostate): 24.4 µM; TGI (HOP-62 NSCLC): 29.7 µM; TGI (OVCAR-3 ovarian): 23.1 µM; TGI (KM12 colon): 5.13 µM; TGI (CCRF-CEM leukemia): 2.11 µM; TGI (SK-OV-3 ovarian): 32.1 µM; TGI (SK-MEL-5 melanoma): 20 µM; TGI (A549 NSCLC): 30.5 µM; TGI (SW-620 colon): 5.61 µM; TGI (M14 melanoma): 9.81 µM; TGI (UACC-62 melanoma): 24.6 µM; TGI (MDA-MB-435): 7.85 µM; TGI (NCI-H522 lung): 6.32 µM; TGI (T-47D breast): > 56.6 µM; TGI (ACHN renal): 17 µM; TGI (CAKI-1 renal): 24.6 µM; TGI (NCI-H23 lung): > 21.9 µM; TGI (SNB-19 CNS): 30.8 µM; TGI (K-562 leukemia): > 33.3 µM; TGI (RPMI-8226 leukemia): 5.91 µM; TGI (NCI/ADR-RES ovarian): > 71.7 µM; TGI (IGROV1 ovarian): 30 µM; TGI (MALME-3M melanoma): 25.4 µM; TGI (RXF 393 renal): 21.2 µM; TGI (U251 CNS): 4.13 µM; TGI (BT-549 breast): 20 µM; TGI (TK-10 renal): 12.6 µM; TGI (SK-MEL-2 melanoma): 26.4 µM; TGI (HT29 colon): 11.7 µM; TGI (OVCAR-4 ovarian): 25.5 µM; TGI (EKVX NSCLC): 34.3 µM; TGI (A498 renal): 25.7 µM; TGI (NCI-H460 lung): 13.8 µM; TGI (SF-268 CNS): 45.2 µM; TGI (MOLT-4 leukemia): 14.7 µM; TGI (HCT-116 colon): 4.04 µM; TGI (HS 578T breast): > 27.2 µM; TGI (HL-60(TB) leukemia): 9.99 µM; TGI (OVCAR-5 ovarian): 33 µM; TGI (LOX IMVI melanoma): 4.71 µM; TGI (UO-31 renal): 3.58 µM; TGI (PC-3 prostate): 21.1 µM; TGI (NCI-H226 lung): 33.6 µM
